In patent publication US12102615B2 (THE TEXAS A&M UNIVERSITY SYSTEM, priority 2018, dated 2024):
Converted amounts (≈) assume the structure as drawn.

How the values were obtained:
Type in all cases: cell-based
[1] = system: Fluconazole resistant C. albicans and C. glabrata; assay: MIC against fluconazole resistant isolates
Experimental: (§1) Minimum inhibitory concentration (MIC) susceptibility testing was performed according to the CLSI M27-A3 and M38-A2 standards for the susceptibility testing of yeasts and filamentous fungi, respectively. Incubation temperature was at 35° C. and the inoculum size was 0.5-2.5×10^3 colony-forming units (CFU)/mL and 0.4-5×10^4 conidia/mL for yeasts and filamentous fungi, respectively. Inoculum concentration for dermatophytes was 1-3×10^3 conidia/mL. RPMI was used throughout as the growth medium and Cryptococcus strains were tested in YNB. […] Voriconazole MICs were recorded at 80% inhibition after 96 hours of incubation for dermatophytes. S. cerevisiae deletion mutants were obtained from the commercially available BY4741 deletion library (Thermo Scientific). Susceptibility testing was carried out on inoculum size of 0.5-1×10^4 cells/ml in YPD media at 30° C. and MICs recorded after 48 and 60 hours.

[2] = system: Trichophyton rubrum 11199; assay: MIC susceptibility testing (CLSI M38-A2); conditions: Trichophyton rubrum, 11199, read-out: Fluconazole MIC
Experimental: as §1

[3] = system: Trichophyton rubrum 28659; assay: MIC susceptibility testing (CLSI M38-A2); conditions: Trichophyton rubrum, 28659, read-out: Fluconazole MIC
Experimental: as §1

[4] = system: Trichophyton mentagrophytes 10207; assay: MIC susceptibility testing (CLSI M38-A2); conditions: Trichophyton mentagrophytes, 10207, read-out: Fluconazole MIC
Experimental: as §1

[5] = system: Trichophyton mentagrophytes 28556; assay: MIC susceptibility testing (CLSI M38-A2); conditions: Trichophyton mentagrophytes, 28556, read-out: Fluconazole MIC
Experimental: as §1

[6] = system: Trichophyton rubrum 28658; assay: MIC susceptibility testing (CLSI M38-A2); conditions: Trichophyton rubrum, 28658, read-out: Fluconazole MIC
Experimental: as §1

[7] = system: Trichophyton mentagrophytes 28641; assay: MIC susceptibility testing (CLSI M38-A2); conditions: Trichophyton mentagrophytes, 28641, read-out: Fluconazole MIC
Experimental: as §1

Candida albicans 28200 = assay: MIC susceptibility testing (CLSI M27-A3); conditions: Candida albicans, 28200, 24 h, read-out: Fluconazole MIC
Experimental: as §1

[8] = system: Cryptococcus neoformans 19526; assay: MIC susceptibility testing (CLSI M27-A3); conditions: Cryptococcus neoformans, 19526, 72 h, read-out: Fluconazole MIC
Experimental: as §1

Candida glabrata 25742 = assay: MIC susceptibility testing (CLSI M27-A3); conditions: Nakaseomyces glabratus, 25742, 24 h, read-out: Fluconazole MIC
Experimental: as §1

[9] = system: Candida parapsilosis 28174; assay: MIC susceptibility testing (CLSI M27-A3); conditions: Lodderomyces parapsilosis, 28174, 24 h, read-out: Fluconazole MIC
Experimental: as §1

[10] = system: Candida parapsilosis 2006; assay: MIC susceptibility testing (CLSI M27-A3); conditions: Lodderomyces parapsilosis, 2006, 24 h, read-out: Fluconazole MIC
Experimental: as §1

[11] = system: Candida parapsilosis 28364; assay: MIC susceptibility testing (CLSI M27-A3); conditions: Lodderomyces parapsilosis, 28364, 24 h, read-out: Fluconazole MIC
Experimental: as §1

Candida krusei 28570 = assay: MIC susceptibility testing (CLSI M27-A3); conditions: Pichia kudriavzevii, 28570, 24 h, read-out: Fluconazole MIC
Experimental: as §1

Candida tropicalis 28272 = assay: MIC susceptibility testing (CLSI M27-A3); conditions: Candida tropicalis, 28272, 24 h, read-out: Fluconazole MIC
Experimental: as §1

Candida krusei 28415 = assay: MIC susceptibility testing (CLSI M27-A3); conditions: Pichia kudriavzevii, 28415, 24 h, read-out: Fluconazole MIC
Experimental: as §1

Candida tropicalis 9624 = assay: MIC susceptibility testing (CLSI M27-A3); conditions: Candida tropicalis, 9624, 24 h, read-out: Fluconazole MIC
Experimental: as §1

Candida glabrata 28271 = assay: MIC susceptibility testing (CLSI M27-A3); conditions: Nakaseomyces glabratus, 28271, 24 h, read-out: Fluconazole MIC
Experimental: as §1

Candida krusei 9541 = assay: MIC susceptibility testing (CLSI M27-A3); conditions: Pichia kudriavzevii, 9541, 24 h, read-out: Fluconazole MIC
Experimental: as §1

Candida albicans 23512 = assay: MIC susceptibility testing (CLSI M27-A3); conditions: Candida albicans, 23512, 24 h, read-out: Fluconazole MIC
Experimental: as §1

[12] = system: Cryptococcus neoformans 28446; assay: MIC susceptibility testing (CLSI M27-A3); conditions: Cryptococcus neoformans, 28446, 72 h, read-out: Fluconazole MIC
Experimental: as §1

Candida tropicalis 28478 = assay: MIC susceptibility testing (CLSI M27-A3); conditions: Candida tropicalis, 28478, 24 h, read-out: Fluconazole MIC
Experimental: as §1

Candida glabrata 27243 = assay: MIC susceptibility testing (CLSI M27-A3); conditions: Nakaseomyces glabratus, 27243, 24 h, read-out: Fluconazole MIC
Experimental: as §1

[13] = system: Cryptococcus neoformans 27708; assay: MIC susceptibility testing (CLSI M27-A3); conditions: Cryptococcus neoformans, 27708, 72 h, read-out: Fluconazole MIC
Experimental: as §1

Candida albicans 28102 = assay: MIC susceptibility testing (CLSI M27-A3); conditions: Candida albicans, 28102, 24 h, read-out: Fluconazole MIC
Experimental: as §1

## OC(Cn1cncn1)(Cn1cncn1)c1ccc(F)cc1F [Fluconazole]
[1]
  MIC / inhibitory concentrations: ≥ 32 µg/mL
[2]
  MIC: 0.25 µg/mL (≈ 0.816 µM)
[3]
  MIC: 2 µg/mL (≈ 6.53 µM)
[4]
  MIC: > 16 µg/mL
[5]
  MIC: > 16 µg/mL
[6]
  MIC: 2 µg/mL (≈ 6.53 µM)
[7]
  MIC: 16 µg/mL (≈ 52.2 µM)
Candida albicans 28200
  MIC: 8 µg/mL (≈ 26.1 µM)
[8]
  MIC: 4 µg/mL (≈ 13.1 µM)
Candida glabrata 25742
  MIC: 4 µg/mL (≈ 13.1 µM)
[9]
  MIC: 0.25 µg/mL (≈ 0.816 µM)
[10]
  MIC: 0.125 µg/mL (≈ 0.408 µM)
[11]
  MIC: 0.25 µg/mL (≈ 0.816 µM)
Candida krusei 28570
  MIC: 16 µg/mL (≈ 52.2 µM)
Candida tropicalis 28272
  MIC: 0.125 µg/mL (≈ 0.408 µM)
Candida krusei 28415
  MIC: 64 µg/mL (≈ 209 µM)
Candida tropicalis 9624
  MIC: 0.25 µg/mL (≈ 0.816 µM)
Candida glabrata 28271
  MIC: > 64 µg/mL
Candida krusei 9541
  MIC: 16 µg/mL (≈ 52.2 µM)
Candida albicans 23512
  MIC: 32 µg/mL (≈ 104 µM)
[12]
  MIC: 4 µg/mL (≈ 13.1 µM)
Candida tropicalis 28478
  MIC: 0.125 µg/mL (≈ 0.408 µM)
Candida glabrata 27243
  MIC: 64 µg/mL (≈ 209 µM)
[13]
  MIC: 2 µg/mL (≈ 6.53 µM)
Candida albicans 28102
  MIC: 0.125 µg/mL (≈ 0.408 µM)
